From patent publication US7867522B2, “Method of wound/burn healing using copper-zinc compositions” (JR Chem, LLC, priority 2006, dated 2011)

Experiments:
Assay type in all cases: in vivo, human
[1] = tested on: 6 inch laceration to their right forearm; assay: topical treatment of a forearm laceration; conditions: person; emulsion composition applied three times a day for 1 week
Excerpt: A person is suffering from 6 inch laceration to their right forearm. An emulsion composition suitable for treatment of skin containing an effective amount of copper-zinc malonate active ingredient is applied to their laceration three times a day for 1 week.

[2] = tested on: pressure ulcer; assay: topical treatment of pressure ulcers in a diabetic patient
Excerpt: A diabetic is suffering from a stage I pressure ulcer characterized by non-blanchable erythema on intact skin. A gel composition suitable for treatment of skin containing an effective amount of copper-zinc malonate active ingredient is routinely applied to the stage I pressure ulcer twice daily.
A diabetic is suffering from a stage II pressure ulcer characterized by partial skin loss involving the epidermis, dermis, or both. The lesion is superficial and presents clinically as a shallow center. A liquid composition suitable for treatment of skin containing an effective amount of copper-zinc malonate active ingredient is applied to the shallow center four times a day for 2 months.
A diabetic is suffering from a stage III pressure ulcer characterized by full thickness skin loss involving damage or necrosis of subcutaneous tissue that extends down to, but not through, underlying fascia. The sore presents clinically as a deep crater. A liquid composition suitable for treatment of skin containing an effective amount of one or more copper-zinc malonate active ingredients is applied to the crater four times a day for 1 month.
A diabetic is suffering from a stage IV pressure ulcer characterized by full thickness skin loss with extensive destruction, and tissue necrosis. A liquid composition suitable for treatment of skin containing an effective amount of copper-zinc malonate active ingredient is applied to the dying tissue four times a day for 1 month.

[3] = tested on: third degree burns on their left wrist and stomach; assay: topical treatment of third degree burns; conditions: person; liquid composition applied four times a day for 1 month
Excerpt: A person truck accident victim is suffering from third degree burns on their left wrist and stomach. A liquid composition suitable for treatment of skin containing an effective amount of copper-zinc malonate active ingredient is applied to the third degree burn four times a day for 1 month.

[4] = tested on: bee sting characterized by pain and swelling; assay: topical treatment of a bee sting; conditions: child; liquid composition containing 0.05% active ingredient, four times a day for 2 days
Excerpt: A child is suffering from a bee sting characterized by pain and swelling. A liquid composition suitable for treatment of skin containing 0.05% copper-zinc malonate active ingredient is applied to the sting four times a day for 2 days.

[5] = tested on: open soars on their feet; assay: topical treatment of open sores on the feet; conditions: person, composition applied to the wound twice a day for 10 days
Excerpt: A person is suffering from open soars on their feet. A composition containing copper-zinc malonate is applied to the wound twice a day for 10 days. Healing time is reduced.

[6] = liquid composition applied four times a day for 1 month

copper-zinc malonate was tested, and the “healing and time necessary for the wound to close” value [1] was “promotes healing and decreases the time necessary for the wound to close”, the “stage I pressure ulcer” value ([2]; gel composition applied twice daily) was “reduced or eliminated” and the “stage III pressure ulcer” value [2, 6] was “reduced or eliminated”. The “stage IV pressure ulcer” value [2, 6] was “reduced or eliminated”, the “stage II pressure ulcer” value ([2]; liquid composition applied four times a day for 2 months) was “reduced or eliminated” and the “burnt wrist and stomach, healing time” value [3] was “improve, and healing time is reduced”. The bee sting [4] was “reduced or eliminated” and the healing time [5] was “reduced”.
